Patent publication US9598441B2, “Therapeutic compounds and methods” (Wayne State University, priority 2011, dated 2017)

Key:
[1] = system: cell cycle progression; test: Flow-cytometric cell cycle analysis (propidium iodide); format: cell-based
Experimental: FIGS. 5A-5D: CFM-4 suppresses cell growth in part by elevating CARP-1 and diminishing cyclin B1 levels. In panel A, cells were treated with indicated agents for noted times, labeled with propidium iodide, and sorted by flow cytometry. Histogram and table below represent cell numbers in various phases of cell cycle. In panel B, cells were treated with indicated dose of CFM-4 for noted times, in panel C, cells were either untreated (−) or treated (+) with CFM-4 for noted dose and time, while in panel D, cells were either treated with vehicle control (DMSO) or with indicated agents for noted dose and time. The cell lysates (50 μg/lane) in panels B-D were analyzed by WB for levels of CARP-1, Cyclin B1, Cdh1, APC-2, CDKIs p21^WAF1/CIP1, p27^KIP1 and actin proteins as in methods.
CARP-1 is required for CFM-4-dependent cell growth inhibition. Because APC/C E3 ubiquitin ligase functions to regulate cell cycle and CFM-4 binds with CARP-1 to inhibit its binding with APC-2, it was next determined whether the SMIs interfere with cell cycle progression. […] The APC/C^Cdc20 E3 ubiquitin ligase regulates turnover of the mitotic cyclin B1 and Cdc20 during the G2M phase and exit to mitosis while APC/C^Cdh1 E3 ligase targets Cdc20 as well as SCF ligase to accomplish exit from mitosis and transition to G0/G1 phases. Attenuation of SCF ligase by APC/C^Cdh1, in turn, results in elevated levels of CDKIs p21^WAF1/CIP1 and p27^KIP1. […] To investigate this possibility it was determined whether CFM-4 binding with CARP-1 modulated CARP-1 levels. […] Levels of both the p21^WAF1/CIP1 and p27^KIP1 CDKIs were elevated when cells were exposed to CFM-4 for 0.5-1.0 h time periods (FIG. 5B). This may likely be due to the initial response of the cells to stress following exposure to CFM-4. […] This loss of CDKI expression could be due to attenuation of APC/C^Cdh1 activity following modest reduction in the Cdh1 levels as well as inability of CARP-1 to bind with APC-2 over prolonged periods of treatments with CFM-4. […]

[2] = system: apoptosis of HBC cells; test: ELISA-based DNA fragmentation apoptosis assay; format: cell-based, human
Experimental: For apoptosis ELISA assay, 4−5×10^2 cells were seeded in 96-well plates and treated essentially as indicated in the MTT assay above. Untreated as well as treated cells were lysed, and levels of mono and oligo-nucleosomal DNA fragments in the lysates were determined by measuring optical density of each sample at 405 nm and 495 nm wavelengths. […] For TUNEL labeling, the cells were treated with various agents, fixed, labeled and photographed essentially as detailed in immuno-localization protocols described before (Zhang, L., Levi, E., Majumder, P., Yu, Y., Aboukameel, A., Du, J., Xu, H., Mohammad, R. M., Hatfield, J. S., Wali, A., Adsay, V., Majumdar, A. P. N., and Rishi, A. K. (2007) Mol. Cancer. Ther. 6(5), 1661-1672). […] Cell lysates derived from vehicle DMSO (Control) or CFM-4-treated cells were added to the wells that had immobilized fluorogenic caspase-3, caspase-8, caspase-9, or caspase-2 substrates. The fluorescence released from the activated caspase-dependent cleavage of respective substrate was detected by a plate reader at the excitation and emission wavelengths of 380 nm and 460 nm, respectively.
CFM-4 suppresses cell growth in part by inducing apoptosis: In light of the data in FIG. 5A showing significant accumulation of CFM-4-treated cells in the sub G0 phase, and the fact that cells undergoing apoptosis often accumulate in the sub G0 fractions, it was next ascertained the extent of apoptosis stimulation by these agents by utilizing an ELISA-based DNA fragmentation assay. […] The intrinsic, mitochondria-mediated and the extrinsic, extracellular receptor-activated, apoptosis signaling pathways are transduced by activation of various caspases that promote eventual breakdown of cellular proteins, organelles and plasma membrane. […] It was next determined whether apoptosis stimulation by CFM-4 involved activation of caspases 8 or 9 or both. […] The activation of caspases in the presence of CFM-4 was further profiled by utilizing a fluorescence-based quantitative assay as detailed in methods. […]

Row | Structure (SMILES) | cell cycle effect (flow cytometry) [1] | apoptosis level (DNA fragmentation ELISA) [2]
1 | Cc1cc(Br)cc2c1NC(=O)/C2=C1\SC(=S)NC1=O [CFM-1, (Z)-5-(5-bromo-7-methyl-2-oxoindolin-3-ylidene)-2-thioxothiazolidin-4-one] | induced G2M cell cycle arrest | without significant increase in apoptosis
2 | O=C1N(Cc2ccccc2Cl)c2ccccc2C12NN=C(c1ccccc1)S2 (stereo not drawn) [CFM-4, 1-(2-chlorobenzyl)-5′-phenyl-3′H-spiro[indoline-3,2′-[1,3,4]thiadiazol]-2-one] | induced G2M cell cycle arrest | significantly elevated levels of apoptosis
3 | COc1cccc2c1C(=O)c1c(O)c3c(c(O)c1C2=O)C[C@@](O)(C(=O)CO)C[C@@H]3O[C@H]1C[C@H](N)[C@H](O)[C@H](C)O1 [ADR, adriamycin, reference compound] | induced G2M cell cycle arrest | significantly elevated levels of apoptosis
